The compounds below were run on Artemia salina (assay: Toxicity against Artemia salina). Conditions: in vivo.
Format: organism-based

Compound | LC50
C/C1=C\C=C(\C(C)C)[C@@H](O)C[C@]2(C)O[C@H]2CC/C(C)=C/CC1 | 50 ppm
CC(=O)O[C@H]1/C(C(C)C)=C\C=C(/C)CC/C=C(\C)CC[C@@H]2O[C@]2(C)[C@H]1C(C)=O | 110 ppm
CC(=O)O[C@@H]1/C(C(C)C)=C\C=C(/C)CC/C=C(\C)CC[C@@H]2O[C@]2(C)[C@H]1O [FLACCIDOXIDE] | 180 ppm

From ChEMBL document CHEMBL1155631, “Cembrane diterpenes from the southern African soft coral Cladiella kashmani” (J Nat Prod, 2000)
